The text below walks through data of patent US11130132B2, “Microfluidic neutrophil assays and systems for disease detection” (The General Hospital Corporation, priority 2016, dated 2021).

The experiment deals with neutrophils in whole blood. As to the kind of experiment: blood-spiking with immune-modulators: spontaneous neutrophil motility in whole blood in the microfluidic device. Type of experiment: cell-based, human. Particulars: 37° C. 30 min before loading. Here is the method: Prior to the addition of a blood sample, devices were primed with IMDM containing 10% FBS and 1% Fibronectin (from human plasma, Sigma) by pipetting 50 μl into the sample loading chamber and around each device, such that a dome of liquid formed on top, and the outer edge of the device in contact with the coverslip was surrounded. The devices were placed under a vacuum for at least 10 minutes, and then removed and allowed to re-pressurize and equilibrate for at least 15 minutes to remove bubbles.
Whole blood samples to be loaded in the device were diluted 1:1 in IMDM with 20% FBS and stained with Hoechst 33342 dye at 32 μM for 15 minutes prior to loading. A small droplet of 0.5 μL of stained blood was then pipetted into the center of the device using a gel-loading tip. The blood droplet is pipetted into the central chamber and time-lapse imaging of the mazes was then used to measure neutrophil behavior over a period of 4 hours.
Cell motility was imaged at 10× magnification using a fully automated fluorescent Nikon TiE inverted wide field microscope with a biochamber heated to 37° C. with 5% CO2. Each microfluidic device included 8 imaging fields, each containing one […]. Each field was imaged every 2 minutes over the course of 4 hours to allow accurate tracking of cell motility.
Automated cell tracking was performed using ImageCV, TrackPy, and SciKit-Learn packages in Python. Files were converted to standard AVI format using Nikon Elements or ImageJ. Initial processing was performed to allow brightfield tracking and included removing the background. Cell tracking was performed automatically from brightfield images for most of the time-lapse sequences. Cells were tracked by size, velocity, and directionality. These tracks were written to individual CSV files for each imaging field. The specific variables for each track included: track number, video frame, cell diameter, x position, y position, distance, and velocity. Cell motility pattern identification and definitions are detailed in Table 2. Figures were prepared using Illustrator CS5 Version 15.0.0 (Adobe Systems).
For plasma-swapping experiments, 1 mL of whole blood was centrifuged at 200 g for 10 minutes to pellet cells. The platelet-rich plasma supernatants were then drawn from the tubes and transferred into fresh tubes. Platelets were then pelleted at 1900 g for 10 minutes and the plasma fraction drawn into fresh tubes. Cell pellets were then re-suspended in the appropriate exchanged plasma and an aliquot loaded into the device. For blood-spiking experiments, immune-modulators were added to the media at 2× the target dose prior to mixing 1:1 with whole blood. Once mixed, spiked blood samples were incubated at 37° C. for 30 min prior to loading.

The mark [1] stands for this setting: whole blood spiked at 0.1 ng/mL.
Setting [2] is: whole blood spiked at 1.0 ng/mL.
[3] abbreviates: whole blood spiked at 0.5 ng/mL.
The mark [4] stands for this setting: whole blood spiked at 1.8 ng/mL.
The mark [5] stands for this setting: whole blood spiked at 0.3 ng/mL.

For the molecule “IL1-β: immune-modulator previously reported to be elevated in septic blood, spiked into whole blood”, under setting [1], the “Oscillations (O)” value is reported as 1.4 ± 1.5, the Pausing stood at 2.4 ± 2.8 and the “Spontaneously migrating cells (N)” value is 3.8 ± 3.2. Under setting [2], the “Oscillations (O)” value was 1.0, the Pausing is recorded as 1.0 and the “Spontaneously migrating cells (N)” value was 0.3 ± 0.1.

On to TNF-α, for which, under setting [1], the “Oscillations (O)” value was 1.7 ± 3.4, the Pausing came out at 4.8 ± 8.8 and the “Spontaneously migrating cells (N)” value was 7.2 ± 13.9. Under setting [3], the “Oscillations (O)” value was found to be 1.3 ± 1.2, the Pausing turned out to be 15.7 ± 14.2 and the “Spontaneously migrating cells (N)” value is recorded as 25.3 ± 26.1. Under setting [2], the “Oscillations (O)” value amounted to 0.7 ± 1.2, the Pausing was found to be 1.3 ± 0.6 and the “Spontaneously migrating cells (N)” value came to 2.7 ± 1.2.

B1: IFN-γ: immune-modulator previously reported to be elevated in septic blood, spiked into whole blood (protein, UniProt P01579 24-161, looked up)
Interferon gamma: QDPYVKEAENLKKYFNAGHSDVADNGTLFLGILKNWKEESDRKIMQSQIVSFYFKLFKNFKDDQSIQKSVETIKEDMNVKFFNSNKKKRDDFEKLTNYSVTDLNVQRKAIHELIQVMAELSPAAKTGKRKRSQMLFRG
In the case of B1, under setting [4], the “Oscillations (O)” value was 4.8 ± 6.3, the Pausing was 7.0 ± 6.9 and the “Spontaneously migrating cells (N)” value turned out to be 10.8 ± 12.4. Also, the “Spontaneously migrating cells (N)” value (whole blood spiked at 2.5 ng/mL) came to 0 ± 0.0.

B2: G-SCF: immune-modulator previously reported to be elevated in septic blood, spiked into whole blood (protein, UniProt P09919 31-207, looked up)
Granulocyte …: TPLGPASSLPQSFLLKCLEQVRKIQGDGAALQEKLVSECATYKLCHPEELVLLGHSLGIPWAPLSSCPSQALQLAGCLSQLHSGLFLYQGLLQALEGISPELGPTLDTLQLDVADFATTIWQQMEELGMAPALQPTQGAMPAFASAFQRRAGGVLVASHLQSFLEVSYRVLRHLAQP
As for B2, under setting [5], the “Oscillations (O)” value was found to be 4.2 ± 9.7, the Pausing is reported as 4.7 ± 9.6 and the “Spontaneously migrating cells (N)” value stood at 6.7 ± 13.6. Besides, under setting [3], the “Oscillations (O)” value is reported as 0.3 ± 0.6, the Pausing was found to be 2.0 ± 1.7 and the “Spontaneously migrating cells (N)” value is listed as 2.3 ± 2.3.
